Test results as given in paper PMC4591261, “Design, Synthesis and Evaluation of 2,5-Diketopiperazines as Inhibitors of the MDM2-p53 Interaction” (PLoS ONE, 2015).
Values joined by “and” are separate entries in the source; they are usually repeats but may differ in a detail not shown here. Equal entries are not always repeated.

Key:
[1] = biological target: GST-MDM2 (1 – 188) (Homo sapiens, UniProt Q00987); test: Fluorescence polarisation (FP) assay, displacement of Texas Red labeled wild-type p53 peptide from MDM2; assay type: binding; settings: for activity in the FP-assay (in words): tested concentrations up to 100 μM; for IC50: 1 μM GST-MDM2 (1-188), 15 nM Texas Red labeled wild-type p53 peptide, 1 h at r.t., 95% CI
Chain of GST-MDM2 (1 – 188) (Q00987 1-188): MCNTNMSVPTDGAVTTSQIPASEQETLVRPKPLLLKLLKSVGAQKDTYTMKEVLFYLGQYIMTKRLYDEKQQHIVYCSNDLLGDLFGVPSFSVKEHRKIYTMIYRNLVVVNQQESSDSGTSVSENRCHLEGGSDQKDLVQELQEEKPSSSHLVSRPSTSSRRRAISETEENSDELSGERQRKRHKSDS
Protocol: To evaluate the 2,5-DKPs as potential MDM2-p53 inhibitors, the same FP-assay was used as for the type III inhibitors.
The FP assay was performed in black 384-well microtiter plates at a final volume of 20 μL per well. […] Two to seven independent experiments of normalized data were combined into a data set, and then fit using a non-linear regression in GraphPad Prism with the formula log(inhibitor) vs. response – Variable slope (four parameters). Additionally the residuals of the curve fit were plotted to determine the fit of the theoretical curve. IC50 and 95% confidence intervals (CI) were determined from these graphs.

[2] = biological target: T1, MDM2 (Homo sapiens, UniProt Q00987); test: WaterLOGSY NMR binding experiment; settings: compound 200 µM, MDM2 protein 5 µM, 298 K
T1 sequence (Q00987 whole entry): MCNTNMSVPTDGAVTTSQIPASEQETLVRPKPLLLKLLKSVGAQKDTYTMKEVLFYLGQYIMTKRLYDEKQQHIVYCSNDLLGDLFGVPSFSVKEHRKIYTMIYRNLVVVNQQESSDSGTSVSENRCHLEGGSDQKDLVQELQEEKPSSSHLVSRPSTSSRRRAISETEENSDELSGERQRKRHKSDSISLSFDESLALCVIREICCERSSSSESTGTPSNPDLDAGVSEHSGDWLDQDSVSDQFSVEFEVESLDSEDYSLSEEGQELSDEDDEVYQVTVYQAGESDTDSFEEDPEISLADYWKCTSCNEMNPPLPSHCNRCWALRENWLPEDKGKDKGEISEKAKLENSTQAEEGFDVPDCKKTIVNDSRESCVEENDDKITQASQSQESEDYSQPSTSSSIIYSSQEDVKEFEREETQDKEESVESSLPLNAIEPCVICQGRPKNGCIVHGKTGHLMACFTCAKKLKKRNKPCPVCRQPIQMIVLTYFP
Protocol: All NMR experiments were performed at 298 K (25 °C) using a Bruker Avance 600 MHz spectrometer equipped with TCI cryogenic gradient probe. Compounds (20 mM stock solution in DMSO-D6) were added to buffer (25mM HEPES, pH7.2, 150 mM NaCl, 2mM TCEP) or buffer containing MDM2 protein (5 µM) to give final compound concentration of 200 µM. One-dimensional (1D) ^1H- and WaterLOGSY (water-ligand observed via gradient spectroscopy)^8 NMR spectra were recorded for compounds, protein, and compounds plus protein, respectively. NMR spectra were processed using Bruker Topspin software.

[3] = biological target: T1, MDM2; test: Surface plasmon resonance (SPR) binding to biotinylated MDM2; settings: 1:1 interaction model, 20 °C; for Rmax (RU): SPR
Protocol: To confirm binding to the target, surface plasmon resonance (SPR) was used to study interactions of 52RR and 52RS with MDM2 [41, 42].
MDM2 was minimally biotinylated by reaction with EZ-Link Sulfo-NHS-LC-LC-Biotin (Thermo Scientific). The biotin reagent was added to the protein at a 0.5:1 molar ratio, and the reaction was incubated on ice for 3-4 hours. Unconjugated biotin was removed by processing the samples through two Zeba Spin Desalting Columns (Thermo Scientific) that had been equilibrated with storage buffer (20 mM Bis-Tris pH 6.5, 200 mM NaCl, 20 mM dithiothreitol, 20% glycerol). Bovine serum albumin (BSA) was added to the reaction at a final concentration of 0.1 mg/mL immediately prior to processing through the spin columns to improve recovery.^2 The biotinylated protein was aliquotted, flash-frozen and stored at -80° C for use in subsequent binding experiments.
SPR experiments were conducted at 20 °C using a SensiQ Pioneer optical biosensor (SensiQ Technologies). Neutravidin (Thermo Scientific) was covalently immobilized on a polysaccharide hydrogel-coated gold surface (COOH5 chip; SensiQ Technologies) using routine amine coupling chemistry in immobilization buffer (10 mM HEPES pH 7.4, 150 mM NaCl, 0.005% Tween20). Carboxyl groups on the hydrogel were activated with N-ethyl-N´-(3-dimethylaminopropyl) carbodiimide (EDC) and N-hydroxysuccinimide (NHS), and neutravidin was injected in 10 mM sodium acetate pH 5.0 until immobilization levels of ~3000-3400 RU were achieved. Remaining active sites were blocked by reaction with ethanolamine. The instrument was primed with binding buffer (20 mM Tris pH 8.0, 100 mM NaCl, 5 mM dithiothreitol, 0.005% Tween20, 5% glycerol, 5% DMSO), and biotinylated MDM2 was injected until ~1070 RU of protein was captured. Unoccupied biotin-binding sites of neutravidin on both the reference and protein surfaces were blocked with amine-PEG2-biotin (Thermo Scientific) to minimize potential non-specific binding by the compounds.^3
The data were processed, double-referenced, solvent corrected and analyzed^4 using the software package Qdat (version 2.5.5.12 , BioLogic Software). The equilibrium dissociation constants (KD) were determined by fitting the data to a 1:1 (Langmuir) interaction model.

Row | Structure (SMILES) | activity in the FP-assay (in words) [1] | binding to MDM2 by WaterLOGSY (in words) [2] | IC50 [1] | Rmax (RU) [3] | ka (M^-1s^-1) ([3]; SPR kinetic analysis) | kd (s^-1) ([3]; SPR kinetic analysis)
1 | CC(C)(C)OC(=O)CN1C(=O)[C@@H](c2ccc(Cl)cc2)N(c2ccc(Cl)cc2)C(=O)[C@H]1Cc1ccccc1 [44RR, (3R,6R)-3-Benzyl-1,6-(di-4-chlorophenyl)-4-(tert-butoxy-carbonyl-methyl)-piperazine-2,5-dione] | inactive |  |  |  |  | 
2 | O=C(O)CN1C(=O)[C@@H](c2ccc(Cl)cc2)N(c2ccc(Cl)cc2)C(=O)[C@H]1Cc1ccccc1 [52RR, (3R,6R)-3-Benzyl-1,6-(di-4-chlorophenyl)-4-(carboxy-methyl)-piperazine-2,5-dione] |  | confirmed binding | 31.4 µM and 31 µM | 16.6 (± 0.2) RU |  | 
3 | CC(C)(C)OC(=O)CN1C(=O)[C@H](c2ccc(Cl)cc2)N(c2ccc(Cl)cc2)C(=O)[C@H]1Cc1ccccc1 [44RS, (3R,6S)-3-Benzyl-1,6-(di-4-chlorophenyl)-4-(tert-butoxy-carbonyl-methyl)-piperazine-2,5-dione] | inactive |  |  |  |  | 
4 | COc1ccc(C2=N[C@@H](c3ccc(Cl)cc3)[C@@H](c3ccc(Cl)cc3)N2C(=O)N2CCNC(=O)C2)c(OC(C)C)c1 [Nutlin-3a] |  |  |  | 28.4 (± 0.1) RU | 9.10 (± 0.01) x 10^5 M^-1s^-1 | 2.80 (± 0.01) x 10^-2 s^-1
5 | O=C(O)CN1C(=O)[C@H](c2ccc(Cl)cc2)N(c2ccc(Cl)cc2)C(=O)[C@H]1Cc1ccccc1 [52RS, (3R,6S)-3-Benzyl-1,6-(di-4-chlorophenyl)-4-(carboxy-methyl)-piperazine-2,5-dione] |  | confirmed binding | 28 µM | 16.8 (± 0.2) RU |  | 
